Earlier results in patent US20050263150A1, “Systems and methods for the administration of drugs and medications” (priority 2004, published 2005).
Like-named read-outs stand apart in the source and are kept apart here.

Legend:
[1] = ketamine combined with benzodiazepines and barbiturates, extends ketamine's half-life
[2] = for duration of action: in vivo

For `CNC1(c2ccccc2Cl)CCCCC1=O` (stereo not drawn) [Ketamine, 2-(2-chlorophenyl)-2-(methylamino)-cyclohexanone], the “prolonging clinical recovery time” value [1] is listed as “about 30%”.

In the case of `CC(C)c1cccc(C(C)C)c1O` [Propofol], the solubility in water is listed as “almost completely insoluble in water”.

For `[N-]=[N+]=O` [Nitrous oxide], the duration of action [2] is listed as 3 to 5 min and the onset of action ([2]; sedative/analgesic) is listed as 3 to 5 min.

For `C=CCC1(C(C)C#CCC)C(=O)N=C(O)N(C)C1=O` (stereo not drawn) [Methohexital], the duration of action [2] is given as “less than 10 minutes” and the onset of action ([2]; procedural sedation) is given as “less than 1 minute”.
